Read-outs that look alike come from different tables or passages of the source.

For data set [1] the following is noted: cited from earlier work.
Another data set in a line: Solubility. Type of data set: physicochemical. As to conditions: PGE1 as API.

As to `CCCCC[C@H](O)/C=C/[C@H]1[C@H](O)CC(=O)[C@@H]1CCCCCCC(=O)O` [PGE1, Prostaglandin E1], the “half life in human body” value in data set [1] (human body (b5)) was “about 30 seconds”. The “half life in human body” value in data set [1] (human body) was 30 s and 600 s. Further, in “Solubility”, the “solubility in tert-Butyl alcohol (TBA)” value is “soluble” and the solubility in water result is reported as “water-insoluble”.

These data come from patent US12419837B2, “Liposomal composition containing mild acidic active agent” (TAIWAN LIPOSOME COMPANY, LTD., priority 2016, dated 2025).
